Activity calls are given as the source filed them.
Tests used:
[1] = viability of HCT116 lacking mutant beta-catenin – cell-based, human colon tumor, dose response (AID 1045); assay type: functional;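 further: HCT116 colon tumor cells with beta catenin knocked out; cells exposed to compound for 60 hours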
[2] = viability of PTEN-deleted HCT116 cells – cell-based, HCT116 PTEN knockout, dose response (AID 1047); assay type: functional;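 further: HCT116 colon tumor cells with PTEN knocked out; cells exposed to compound for 60 hours before readout; potency for loss of cell viability measured by luminescence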
Beta-galactosidase = Beta-galactosidase (Escherichia coli, UniProt Q8VNN2); assay: detection-enzyme interference by beta-gal modulators – biochemical, E. coli enzyme, set 3, artefact control for CCR6 antagonist project, dose response (AID 504712); assay type: functional
Chain of Beta-galactosidase (Q8VNN2 whole entry): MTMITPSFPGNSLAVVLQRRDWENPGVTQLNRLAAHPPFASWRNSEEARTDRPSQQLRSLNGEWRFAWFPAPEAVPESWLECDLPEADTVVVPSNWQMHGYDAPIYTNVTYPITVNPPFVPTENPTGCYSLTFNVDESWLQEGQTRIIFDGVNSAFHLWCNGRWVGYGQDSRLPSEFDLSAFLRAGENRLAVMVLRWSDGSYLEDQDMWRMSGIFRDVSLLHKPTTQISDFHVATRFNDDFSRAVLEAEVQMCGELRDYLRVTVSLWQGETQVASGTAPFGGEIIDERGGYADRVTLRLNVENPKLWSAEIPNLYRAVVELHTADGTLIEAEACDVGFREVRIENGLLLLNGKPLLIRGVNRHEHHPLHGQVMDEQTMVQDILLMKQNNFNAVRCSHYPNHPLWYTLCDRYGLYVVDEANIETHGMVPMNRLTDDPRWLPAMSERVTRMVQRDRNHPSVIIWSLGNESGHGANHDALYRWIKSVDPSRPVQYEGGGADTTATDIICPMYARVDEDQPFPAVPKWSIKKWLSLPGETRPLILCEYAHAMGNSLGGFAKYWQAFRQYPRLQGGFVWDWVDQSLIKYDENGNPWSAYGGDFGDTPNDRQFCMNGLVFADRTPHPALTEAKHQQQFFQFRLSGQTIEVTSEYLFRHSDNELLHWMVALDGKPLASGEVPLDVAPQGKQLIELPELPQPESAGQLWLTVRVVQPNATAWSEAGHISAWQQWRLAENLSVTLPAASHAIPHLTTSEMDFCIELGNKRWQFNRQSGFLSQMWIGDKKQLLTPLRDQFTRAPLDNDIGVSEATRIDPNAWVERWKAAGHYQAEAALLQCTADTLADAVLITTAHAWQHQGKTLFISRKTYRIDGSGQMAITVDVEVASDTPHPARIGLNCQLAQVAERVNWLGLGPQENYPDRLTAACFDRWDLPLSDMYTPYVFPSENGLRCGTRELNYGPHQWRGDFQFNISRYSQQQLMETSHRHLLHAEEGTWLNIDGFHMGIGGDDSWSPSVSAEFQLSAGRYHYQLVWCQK

Cytochrome P450 3A4 = Cytochrome P450 3A4 (Homo sapiens, UniProt P08684); settings: Potency;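 further: confirmatory qHTS run detecting inhibitors and substrates of CYP3A4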
Chain of Cytochrome P450 3A4 (P08684 whole entry): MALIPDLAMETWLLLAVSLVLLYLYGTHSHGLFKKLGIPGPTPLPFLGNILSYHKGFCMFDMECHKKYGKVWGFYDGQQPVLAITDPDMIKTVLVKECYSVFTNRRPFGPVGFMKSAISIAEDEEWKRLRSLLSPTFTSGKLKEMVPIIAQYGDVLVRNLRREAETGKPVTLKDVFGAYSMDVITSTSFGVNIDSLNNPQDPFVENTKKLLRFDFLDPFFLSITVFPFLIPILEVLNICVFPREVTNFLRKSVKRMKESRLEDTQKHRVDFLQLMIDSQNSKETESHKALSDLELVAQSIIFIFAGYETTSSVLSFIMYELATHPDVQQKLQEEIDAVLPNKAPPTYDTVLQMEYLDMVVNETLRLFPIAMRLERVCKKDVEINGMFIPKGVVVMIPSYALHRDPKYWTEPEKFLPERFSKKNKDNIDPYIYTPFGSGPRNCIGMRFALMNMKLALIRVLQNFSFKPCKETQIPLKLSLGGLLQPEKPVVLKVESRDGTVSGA

[3] = A cytotoxicity screen of small molecule inhibitors of the PhoP region in Salmonella typhi identified in the primary screen. [Related pubchem assays: 1850, 1864, 1985 ]; assay type: functional
Bcl-2-like protein 10 = target: T1, Bcl-2-like protein 10 (Homo sapiens, UniProt Q9HD36); assay: Bcl-B/TR3 peptide binding disruption – biochemical, fluorescence polarization, FITC-TR3 peptide, selectivity assay for Bfl-1 inhibitor project, primary screen (AID 748);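 further: fluorescence polarization from a fluorescein-labelled TR3 peptide binding purified Bcl-B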
T1 sequence (Q9HD36 whole entry): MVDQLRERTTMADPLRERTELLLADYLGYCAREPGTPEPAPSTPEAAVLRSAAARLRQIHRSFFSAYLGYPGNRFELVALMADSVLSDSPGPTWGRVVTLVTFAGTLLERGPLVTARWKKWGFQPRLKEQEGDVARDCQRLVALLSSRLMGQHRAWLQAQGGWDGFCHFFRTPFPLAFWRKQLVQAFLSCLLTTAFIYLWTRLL

[4] = target: DNA dC->dU-editing enzyme APOBEC-3A (Homo sapiens, UniProt P31941); assay: A3A deaminase inhibition for selectivity – biochemical, dose response (AID 504722); assay type: functional
Chain of DNA dC->dU-editing enzyme APOBEC-3A (P31941 whole entry): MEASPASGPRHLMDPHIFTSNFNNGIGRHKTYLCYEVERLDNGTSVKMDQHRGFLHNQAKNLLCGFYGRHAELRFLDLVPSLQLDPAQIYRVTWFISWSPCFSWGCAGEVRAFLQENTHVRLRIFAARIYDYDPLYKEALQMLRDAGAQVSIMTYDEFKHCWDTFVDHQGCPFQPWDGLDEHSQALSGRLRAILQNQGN

[5] = target: DNA dC->dU-editing enzyme APOBEC-3G (Homo sapiens, UniProt Q9HC16); assay: Dose Response confirmation of small molecule APOBEC3G DNA Deaminase Inhibitors via a fluorescence-based single-stranded DNA deaminase assay. [Related pubchem assays (depositor defined):AID493012, AID493028]; assay type: functional
Chain of DNA dC->dU-editing enzyme APOBEC-3G (Q9HC16 whole entry): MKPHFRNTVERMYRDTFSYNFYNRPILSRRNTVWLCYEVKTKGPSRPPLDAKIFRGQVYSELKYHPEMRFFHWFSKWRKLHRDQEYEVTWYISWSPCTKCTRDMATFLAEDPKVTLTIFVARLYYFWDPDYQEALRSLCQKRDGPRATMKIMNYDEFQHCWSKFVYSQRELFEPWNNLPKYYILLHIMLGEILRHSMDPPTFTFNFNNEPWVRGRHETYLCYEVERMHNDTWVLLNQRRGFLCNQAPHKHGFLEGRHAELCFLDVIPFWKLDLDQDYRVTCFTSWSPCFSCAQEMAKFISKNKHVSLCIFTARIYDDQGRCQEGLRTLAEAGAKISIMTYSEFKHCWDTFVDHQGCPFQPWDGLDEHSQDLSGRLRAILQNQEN

[6] = target: T2, Heat shock factor protein 1 (Mus musculus, UniProt P38532); assay: decrease of HSF1-responsive luciferase luminescence – cell-based, NIH3T3, dose retest, confirmation (AID 2382); assay type: functional;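 further: NIH3T3 fibroblasts with HSF1-driven luciferase reporter stressed by proteasome inhibitor MG132; luminescence from HSF1-driven luciferase expression after 8 hours of MG132 stress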
T2 sequence (P38532 whole entry): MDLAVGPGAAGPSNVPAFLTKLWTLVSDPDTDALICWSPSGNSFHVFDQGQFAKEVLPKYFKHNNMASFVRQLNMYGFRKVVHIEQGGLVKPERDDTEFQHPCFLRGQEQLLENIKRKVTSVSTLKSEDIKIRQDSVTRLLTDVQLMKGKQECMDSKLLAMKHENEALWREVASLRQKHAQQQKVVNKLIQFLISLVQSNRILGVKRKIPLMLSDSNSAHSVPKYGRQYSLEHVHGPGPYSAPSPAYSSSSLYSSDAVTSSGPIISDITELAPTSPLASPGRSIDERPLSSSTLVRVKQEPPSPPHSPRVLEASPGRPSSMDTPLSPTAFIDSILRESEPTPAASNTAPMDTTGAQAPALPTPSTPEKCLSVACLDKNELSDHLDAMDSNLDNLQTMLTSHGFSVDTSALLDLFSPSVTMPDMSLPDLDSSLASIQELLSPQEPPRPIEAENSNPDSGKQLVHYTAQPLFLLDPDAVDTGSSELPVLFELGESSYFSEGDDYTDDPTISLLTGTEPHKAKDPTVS

Nonstructural protein 1 = Nonstructural protein 1 (Influenza A virus, UniProt Q194T2); assay type: functional, Influenza A virus (A/California/07/2009(H1N1))
[7] = target: T3, Acyl-homoserine lactone acylase PvdQ (Pseudomonas aeruginosa (strain LESB58), UniProt Q9I194); assay: PvdQ acylase enzyme activity blockers – biochemical, fluorescence, plate reader and imaging, cherry-picks, dose response (AID 493231)
T3 sequence (Q9I194 whole entry): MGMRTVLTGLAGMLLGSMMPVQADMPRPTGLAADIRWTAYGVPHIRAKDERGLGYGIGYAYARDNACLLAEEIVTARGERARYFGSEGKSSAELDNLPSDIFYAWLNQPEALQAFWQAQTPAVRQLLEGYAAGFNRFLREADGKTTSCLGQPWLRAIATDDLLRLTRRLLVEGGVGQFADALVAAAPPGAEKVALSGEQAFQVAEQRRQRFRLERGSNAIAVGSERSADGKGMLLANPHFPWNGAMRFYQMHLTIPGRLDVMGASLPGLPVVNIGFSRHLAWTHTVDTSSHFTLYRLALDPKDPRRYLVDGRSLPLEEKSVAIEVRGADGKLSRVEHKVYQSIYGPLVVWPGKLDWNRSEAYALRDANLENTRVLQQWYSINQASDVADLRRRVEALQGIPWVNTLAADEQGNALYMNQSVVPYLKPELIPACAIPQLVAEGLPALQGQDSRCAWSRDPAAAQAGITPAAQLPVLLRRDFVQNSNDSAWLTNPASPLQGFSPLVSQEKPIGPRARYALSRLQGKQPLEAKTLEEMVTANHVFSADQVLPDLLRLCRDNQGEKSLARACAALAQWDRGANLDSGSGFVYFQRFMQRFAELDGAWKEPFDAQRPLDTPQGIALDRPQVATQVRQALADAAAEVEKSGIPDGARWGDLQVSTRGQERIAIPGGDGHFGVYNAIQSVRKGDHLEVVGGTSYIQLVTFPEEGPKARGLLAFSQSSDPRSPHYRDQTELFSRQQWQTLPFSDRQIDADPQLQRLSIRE

SUMO-activating enzyme [8] = target: T4, SUMO-activating enzyme (Homo sapiens, UniProt Q9UBT2); assay: blockers of SAE1/SAE2–UBC9 SUMO transfer – biochemical, HTRF, uHTS, primary screen (AID 2006); assay type: protein-complex assay
T4 sequence (Q9UBE0 whole entry): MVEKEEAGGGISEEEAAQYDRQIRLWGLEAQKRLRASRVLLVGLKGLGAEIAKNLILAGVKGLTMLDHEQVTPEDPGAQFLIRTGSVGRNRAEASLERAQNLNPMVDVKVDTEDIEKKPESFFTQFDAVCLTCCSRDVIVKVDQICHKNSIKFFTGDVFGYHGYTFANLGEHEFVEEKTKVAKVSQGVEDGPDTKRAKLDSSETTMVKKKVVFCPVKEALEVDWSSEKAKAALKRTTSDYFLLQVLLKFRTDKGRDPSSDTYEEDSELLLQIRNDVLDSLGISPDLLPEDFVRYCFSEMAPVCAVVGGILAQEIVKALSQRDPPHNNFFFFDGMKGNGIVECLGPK
T4 sequence (Q9UBT2 whole entry): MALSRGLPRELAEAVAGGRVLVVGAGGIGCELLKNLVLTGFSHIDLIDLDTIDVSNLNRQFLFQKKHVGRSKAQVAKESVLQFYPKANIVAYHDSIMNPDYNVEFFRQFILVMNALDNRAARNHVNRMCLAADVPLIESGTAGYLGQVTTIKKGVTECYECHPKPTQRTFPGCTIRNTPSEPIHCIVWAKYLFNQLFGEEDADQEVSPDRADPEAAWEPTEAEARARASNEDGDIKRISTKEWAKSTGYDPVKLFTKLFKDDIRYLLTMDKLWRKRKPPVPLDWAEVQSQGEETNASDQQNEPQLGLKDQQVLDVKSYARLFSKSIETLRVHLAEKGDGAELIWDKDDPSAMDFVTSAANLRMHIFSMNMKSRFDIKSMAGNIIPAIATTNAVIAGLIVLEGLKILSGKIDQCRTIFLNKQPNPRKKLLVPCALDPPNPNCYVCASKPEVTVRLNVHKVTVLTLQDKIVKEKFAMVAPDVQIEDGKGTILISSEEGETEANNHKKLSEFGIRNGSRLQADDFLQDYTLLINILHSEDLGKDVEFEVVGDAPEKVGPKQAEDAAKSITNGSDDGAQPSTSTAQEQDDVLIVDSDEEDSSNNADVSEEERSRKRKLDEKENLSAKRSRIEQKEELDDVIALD

SUMO-activating enzyme [9] = target: T4, SUMO-activating enzyme; assay: blockers of UBC9-mediated SUMO conjugation – biochemical, AlphaScreen, SUMOylation inhibitor project, confirmation (AID 2018); assay type: functional
Cytochrome P450 2C9 = Cytochrome P450 2C9 (Homo sapiens, UniProt P11712)
[10] = target: T5, Voltage-gated N-type calcium channel alpha-1B subunit/Amyloid beta A4 precursor protein-binding family A member 1 (Homo sapiens, UniProt Q00975+Q02410); assay type: protein assay
[11] = target: T5, Voltage-gated N-type calcium channel alpha-1B subunit/Amyloid beta A4 precursor protein-binding family A member 1; assay type: protein assay; remark: listed apart in the source
Estrogen receptor = target: T6, Estrogen receptor (Homo sapiens, UniProt P03372);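 further: potency for inhibiting coactivator peptide recruitment to the receptor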
T6 sequence (P03372 whole entry): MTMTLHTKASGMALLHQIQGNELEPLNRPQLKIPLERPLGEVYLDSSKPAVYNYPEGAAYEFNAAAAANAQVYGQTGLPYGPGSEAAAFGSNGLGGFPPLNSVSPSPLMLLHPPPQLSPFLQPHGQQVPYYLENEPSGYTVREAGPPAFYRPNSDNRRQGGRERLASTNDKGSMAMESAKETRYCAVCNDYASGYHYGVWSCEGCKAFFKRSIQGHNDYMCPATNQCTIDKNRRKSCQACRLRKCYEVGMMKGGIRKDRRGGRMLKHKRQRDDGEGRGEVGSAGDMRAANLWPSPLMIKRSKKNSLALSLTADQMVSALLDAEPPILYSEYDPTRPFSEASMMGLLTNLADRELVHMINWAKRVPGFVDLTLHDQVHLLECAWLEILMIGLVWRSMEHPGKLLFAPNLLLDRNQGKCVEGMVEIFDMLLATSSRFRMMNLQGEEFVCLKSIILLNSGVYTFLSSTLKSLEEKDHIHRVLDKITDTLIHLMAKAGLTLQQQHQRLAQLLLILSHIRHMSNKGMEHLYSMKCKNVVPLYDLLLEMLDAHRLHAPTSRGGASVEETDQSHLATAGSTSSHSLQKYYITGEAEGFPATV

[12] = NIH3T3 cell viability loss – ATP luminescence, mouse fibroblasts, counter-screen, dose response (AID 2010); assay type: functional, cell-based;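 further: cells exposed to compound for about 90 hours before reading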
[13] = Trypanosoma cruzi growth suppression in host cells – NIH3T3 host cells, beta-gal luminescence, confirmation (AID 2044); assay type: functional, cell-based;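 further: intracellular parasites grown in NIH/3T3 mouse fibroblasts as host cells; luminescent beta-galactosidase reporter signal from transgenic T. cruzi replicating inside host cells; inhibitors lower the luminescence signal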
[14] = target: Induced myeloid leukemia cell differentiation protein Mcl-1 (Homo sapiens, UniProt Q07820); assay type: functional
Chain of Induced myeloid leukemia cell differentiation protein Mcl-1 (Q07820 whole entry): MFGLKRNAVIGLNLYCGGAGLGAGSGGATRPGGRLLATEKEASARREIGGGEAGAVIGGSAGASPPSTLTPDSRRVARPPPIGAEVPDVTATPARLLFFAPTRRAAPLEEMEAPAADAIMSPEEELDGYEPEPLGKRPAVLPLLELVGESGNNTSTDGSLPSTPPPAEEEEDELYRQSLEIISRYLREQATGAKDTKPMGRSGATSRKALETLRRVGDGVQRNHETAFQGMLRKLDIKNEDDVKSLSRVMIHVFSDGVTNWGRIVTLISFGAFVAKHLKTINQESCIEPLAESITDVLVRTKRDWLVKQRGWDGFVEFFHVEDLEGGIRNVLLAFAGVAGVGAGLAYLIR

HEK293 = assay: EBV LMP1 TES2 canonical NF-kB signalling blockers – cell-based, HEK293, luciferase, cherry-pick, dose response (AID 588343); assay type: functional; settings: Homo sapiens
[15] = HEK-293T cell viability reduction – luminescence, B-cell screen hits, cytotoxicity control for BCR NF-kB inhibitor project, dose response (AID 489021); assay type: functional, cell-based;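 further: HEK-293T cells carrying an NF-kB luciferase reporter; cells exposed to compound for about 14 hours before viability readout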
[16] = target: Glucose-6-phosphate 1-dehydrogenase (Homo sapiens, UniProt P11413); assay: inhibition of Homo sapiens G6PD, dose series – biochemical, fluorescence, selectivity assay for P. falciparum G6PD inhibitor project, dose response (AID 504792); assay type: functional
[17] = target: Heat shock protein HSP 90-alpha (Homo sapiens, UniProt P07900); assay type: functional, organism-based
[18] = target: Glyceraldehyde-3-phosphate dehydrogenase (Homo sapiens, UniProt P04406)
Chain of Glyceraldehyde-3-phosphate dehydrogenase (P04406 whole entry): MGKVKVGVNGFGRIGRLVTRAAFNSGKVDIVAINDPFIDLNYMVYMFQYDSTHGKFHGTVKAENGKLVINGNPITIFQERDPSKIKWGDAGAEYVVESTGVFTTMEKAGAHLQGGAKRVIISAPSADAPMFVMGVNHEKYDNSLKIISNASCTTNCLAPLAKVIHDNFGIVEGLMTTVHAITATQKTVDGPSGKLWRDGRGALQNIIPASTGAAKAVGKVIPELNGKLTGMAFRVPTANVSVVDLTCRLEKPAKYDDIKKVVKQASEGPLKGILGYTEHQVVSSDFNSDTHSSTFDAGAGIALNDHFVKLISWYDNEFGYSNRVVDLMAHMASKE

[19] = target: FAD-linked sulfhydryl oxidase ALR (Homo sapiens, UniProt P55789); assay: ALR-catalysed DTT oxidation blockers – biochemical, H2O2 detection, luminescence, cherry-pick, dose response (AID 493248)
Chain of FAD-linked sulfhydryl oxidase ALR (P55789 whole entry): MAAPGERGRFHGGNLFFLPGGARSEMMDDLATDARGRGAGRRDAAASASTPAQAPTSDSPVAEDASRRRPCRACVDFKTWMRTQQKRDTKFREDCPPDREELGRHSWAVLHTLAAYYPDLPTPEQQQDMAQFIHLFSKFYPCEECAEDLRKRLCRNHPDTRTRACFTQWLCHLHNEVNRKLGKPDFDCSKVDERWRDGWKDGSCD

Genome polyprotein = Genome polyprotein (dengue virus type 2, UniProt P29990); assay: flavivirus cap methylation enzyme inhibition – biochemical, confirmation dose response, primary screen (AID 588689); assay type: functional
Chain of Genome polyprotein (P29990 2492-3391 limits assumed): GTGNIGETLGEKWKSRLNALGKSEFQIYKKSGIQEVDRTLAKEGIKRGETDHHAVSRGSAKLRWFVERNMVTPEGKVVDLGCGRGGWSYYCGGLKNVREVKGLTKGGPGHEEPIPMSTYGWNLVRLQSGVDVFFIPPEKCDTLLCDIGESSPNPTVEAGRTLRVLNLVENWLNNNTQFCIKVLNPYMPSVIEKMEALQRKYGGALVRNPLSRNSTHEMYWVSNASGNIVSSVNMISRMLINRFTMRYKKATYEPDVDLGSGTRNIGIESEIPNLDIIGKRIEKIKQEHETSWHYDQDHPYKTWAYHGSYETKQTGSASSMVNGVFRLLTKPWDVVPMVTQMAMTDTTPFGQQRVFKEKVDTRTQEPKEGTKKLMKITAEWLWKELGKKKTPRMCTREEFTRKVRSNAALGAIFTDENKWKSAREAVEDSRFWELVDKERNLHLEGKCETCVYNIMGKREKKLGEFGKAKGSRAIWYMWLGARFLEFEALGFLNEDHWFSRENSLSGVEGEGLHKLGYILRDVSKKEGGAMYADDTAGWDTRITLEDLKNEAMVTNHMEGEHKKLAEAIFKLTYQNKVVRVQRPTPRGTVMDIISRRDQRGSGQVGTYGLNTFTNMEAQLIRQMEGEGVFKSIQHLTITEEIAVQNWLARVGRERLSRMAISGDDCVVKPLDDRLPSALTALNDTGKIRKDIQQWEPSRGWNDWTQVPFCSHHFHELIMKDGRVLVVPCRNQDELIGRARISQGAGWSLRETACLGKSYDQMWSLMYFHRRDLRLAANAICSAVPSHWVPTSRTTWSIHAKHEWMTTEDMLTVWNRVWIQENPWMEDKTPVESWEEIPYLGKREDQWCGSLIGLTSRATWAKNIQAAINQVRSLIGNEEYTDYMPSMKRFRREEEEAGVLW

S=C(Nc1ccccc1)c1ccccn1
EC50 [1]: 32.8 µM (active) | EC50 [2]: 32.5 µM (active) | IC50 (Beta-galactosidase): > 66.6 µM (inactive)

CCCn1c(C)nc2c(NC3CCCCC3)nc(C)nc21
AC50 (Cytochrome P450 3A4): 12.6 µM (inconclusive)

O=[N+]([O-])c1ccc2oc(C3CCCCC3)nc2c1
EC50 [3]: > 50 µM (active)

COc1ccc(C2C=C(c3ccc(Br)cc3)Nc3nc(NS(C)(=O)=O)nn32)cc1 (stereo unspecified)
IC50 (Bcl-2-like protein 10): > 1.56 µM (inactive)

c1ccc(C2[C@H]3CN(CC4CCCCC4)[C@H](c4ccccc4)C34CC2(c2ccccc2)C4)cc1 (stereo partly specified)
AC50 (Cytochrome P450 3A4): 5.01 µM (inconclusive)

Cc1ccsc1-c1nnc(S)n1CC(C)C
IC50 [4]: > 100 µM (inactive) | IC50 [5]: 5.9 µM (active)

COC(=O)[C@@H]1C[C@@H]2CC[C@@H](O)C[C@@H]2N1Cc1ccc(N2CCN(C)CC2)cc1
AC50 (Cytochrome P450 3A4): 10 µM (inconclusive)

CSC1=N/C(=C\C=C\c2cccs2)C(=O)S1
EC50 [6]: 0.853 µM (active) | IC50 (Nonstructural protein 1): 69.4 µM (active) | AC50 [7]: 3.5 µM (active)

N=c1c(S(=O)(=O)c2ccc(Br)cc2)cc2c(=O)n3ccccc3nc2n1Cc1ccco1
IC50 (SUMO-activating enzyme [8]): 4.16 µM (active) | IC50 (SUMO-activating enzyme [9]): 3.92 µM (active)

c1ccc2cc(-c3csnn3)ccc2c1
AC50 (Cytochrome P450 2C9): 14.1 µM (inconclusive) | AC50 [7]: 75.6 µM (active)

CCOc1ccc(NC(=O)c2ccc(NC(=O)c3ccc(CN4CCOCC4)cc3)cc2)cc1
IC50 (SUMO-activating enzyme [8]): 25.1 µM (active) | IC50 [10]: 10.1 µM (active) | IC50 (SUMO-activating enzyme [9]): 22.4 µM (active) | IC50 [11]: > 50 µM (inactive)

CCOC(=O)c1ccc(NC(=O)CSc2nnc(CNc3ccc(OC)cc3)n2C)cc1
IC50 (Estrogen receptor): > 50 µM (not active)

Cc1cccc(-c2nc(Nc3ccc(N4CCOCC4)cc3)c3ccccc3n2)c1
EC50 [12]: > 60 µM (not active) | EC50 [13]: 1.23 µM (active) | IC50 [14]: > 54 µM (active)

CCOC(=O)/C=C(\C)Sc1cc(=O)oc2ccccc12
AC50 (HEK293): 12 µM (active) | IC50 [15]: > 80 µM (inactive) | AC50 [7]: 8.71 µM (active)

O=C1C=CC(=O)N1c1ccc(N2CCCCC2)cc1
IC50 [16]: > 80 µM (inactive) | AC50 [17]: 0.554 µM (active) | IC50 [4]: > 100 µM (inactive) | IC50 [10]: 9.34 µM (active) | IC50 [5]: 7.13 µM (active) | IC50 (Beta-galactosidase): > 66.6 µM (inactive) | IC50 [11]: 3.07 µM (active)

Oc1ccc(-c2nc3ncccn3c2Nc2ccc3c(c2)OCCO3)cc1
EC50 [3]: > 50 µM (active)

CCn1c2ccccc2c2cc(NC(=O)CSc3nnc(-c4ccc(OC)cc4)n3N)ccc21
IC50 (Estrogen receptor): 12.2 µM (active)

COc1cccc(N2CCN(C3=C(Cl)C(=O)N(c4cccc(OC)c4)C3=O)CC2)c1
IC50 [18]: > 50 µM (inconclusive)

CC1CC(C(F)(F)C(F)(F)F)n2nc(C(=O)O)cc2N1 (stereo unspecified)
IC50 (Estrogen receptor): 19.9 µM (active)

Cc1cccc(N/N=C/c2ccc(O)c(O)c2O)c1
AC50 [19]: 1.36 µM (active) | IC50 (Genome polyprotein): 32.6 µM (active) | EC50 [3]: > 50 µM (active)

COc1cc(/C=N\Nc2nc(-c3ccc(C)cc3)c(NC(C)=O)s2)ccc1O
IC50 [14]: 3.02 µM (not active)

Cc1ccc(/C=N/n2c(S)nnc2-c2ccco2)s1
IC50 [4]: > 100 µM (inactive) | IC50 [5]: 1.55 µM (active)

O=S1OCC2C(CO1)C1(Cl)C(Cl)=C(Cl)C2(Cl)C1(Cl)Cl (stereo unspecified) [ENDOSULFAN]
AC50 (Cytochrome P450 3A4): 2.51 µM (inconclusive)
